Source: patent US10513499B2, “Inhibitors of alpha-amino-beta-carboxymuconic acid semialdehyde decarboxylase” (TES Pharma S.r.l., priority 2014, dated 2019)
pEC50: −log10 of the molar value. “Also recorded” adds a separate entry of the source.

What was measured:
[1] = system: AML-12 cells; assay: Cytotoxicity in AML-12 cells (LDH release, ATP level); type: cell-based, mouse; details: 10 nM to 300 μM, 4 hrs
Experimental: (§1) HePG2 and AML-12 cells are seeded and a dose-response of the compound is performed at various concentrations. Cells are stimulated and the supernatant is used to perform LDH release as a measure of necrosis while the cells are lysed to detect ATP levels for determining cell viability.
(§2) Cytotoxicity: 20000 HePG2 and AML-12 cells were seeded in 96 well plate (Viewplate PerkinElmer). Dose-response of the compound in Table 2 was performed using HP D300 digital dispenser, ranging from 10 nM to 300 μM with constant DMSO 1% in medium. Cells were stimulated for 4 hrs at 37° C.; the supernatant was used to perform LDH release (Cytotox-one, Promega) as a measure of necrosis while the cells were lysed to detect ATP level for determining cell viability (Celltiter-glo, Promega) according to manufacturer's instructions.

[2] = system: HePG2 cells; assay: Cytotoxicity in HePG2 cells (LDH release, ATP level); type: cell-based; details: 10 nM to 300 μM, 4 hrs
Experimental: as §1, §2

[3] = system: human primary hepatocytes; assay: NAD+ content in human primary hepatocytes by LCMS/MS; type: cell-based; details: tested at 0.5 μM and 5 μM; compound replaced every 24 hrs
Experimental: Primary hepatocytes are treated with different concentrations of a compound of Formula (I), Formula (Ia), Formula (Ib), Formula (II), or Formula (III), or a pharmaceutically acceptable salt thereof, or MEHP (control) after seeding. The compound is replaced every 24 hours, and then cells are directly harvested and lysed to detect NAD^+ content through LC MS/MS (liquid chromatography mass spectrometry/mass spectroscopy).
The NAD^+ concentration or content was determined in human primary hepatocytes treated with Compound 4. Vehicle (NT) was used as a control.
At least three experiments were run treating primary hepatocytes with different concentrations of Compound 4 (0.5 μM and 5 μM) after 48 hrs from seeding. Compound 4 was replaced every 24 hrs, and then cells were directly harvested and lysed with ACN/H2O (ratio 5:1). LCMS/MS was used to detect and measure NAD^+ concentration/content. […] (FIG. 1)
The NAD^+ concentration or content was determined in human primary hepatocytes treated with Compound 1 and MEHP, a known ACMSD inhibitor. MEHP was used as a control.
At least three experiments were run treating primary hepatocytes with different concentrations of Compound 1 (0.5 μM, 5 μM, and 50 μM) after 48 hrs from seeding. Compound 1 was replaced every 24 hrs, and then cells were directly harvested and lysed with ACN/H2O (ratio 5:1). […]

[4] = system: MDCK cells; assay: Modulation of cisplatin-induced caspase 3/7 activity in MDCK cells; type: cell-based; details: for pEC50: Canis lupus familiaris, MDCK
Experimental: MDCK cells are cultured in base medium to a final concentration of 10%. Cells are plated into 96 wells and 24 hours after cell plating the medium is changed with fresh medium supplemented with 1% FBS. Cisplatin is then used to induce cell injury. Different concentrations of Formula (I), Formula (Ia), Formula (Ib), Formula (II), or Formula (III), or a pharmaceutically acceptable salt thereof (in DMSO) are added in combination with cisplatin or prior to adding cisplatin. Caspase 3/7 activity (Promega) is determined according to standard procedures using a luminescent signal readout on a plate reader. Each experiment/condition is performed in triplicate. Caspase activity is analyzed as percentage effect normalized to the cisplatin alone and vehicle treated cells.
An in vitro study was performed to determine the effects of compounds of Formula (I), Formula (Ia), Formula (Ib), Formula (II), or Formula (III), or a pharmaceutically acceptable salt thereof, on Acute Kidney Injury in MDCK cells.
MDCK cells (MDCK (NBL-2) ATCC® CCL-34™) were cultured in base medium ATCC-formulated Eagle's Minimum Essential Medium, Catalog No. 30-2003 with fetal bovine serum (FBS) to a final concentration of 10%. 10,000 cells were plated into 96 wells and 24 hours after cell plating the medium was changed with fresh medium supplemented with 1% FBS. Cisplatin (50 μM for 16 hrs) was then used to induce cell injury. Different concentrations of Compound 18 (in 1% DMSO) were added in combination with cisplatin (FIG. 1) or 1 hour prior adding cisplatin (FIG. 2).
Caspase 3/7 activity (Promega) was determined according to standard procedures using a luminescent signal readout on a Victor V plate reader (PerkinElmer). Each experiment/condition was performed in triplicate.
Caspase activity was analyzed as percentage effect normalized to the cisplatin alone (100%) and vehicle treated cells as 0% of caspase activity. Data were analyzed by GraphPad Software. One-way analysis of variance (Dunnett's Multiple Comparison test) was used for statistical analyses.

[5] = system: murine primary hepatocytes; assay: NAD+ content in murine primary hepatocytes (HPLC, mass-spectrometry); type: cell-based, mouse; details: 5 nM, 10 nM and 50 nM for 24 hours
[6] = system: SOD2 activity in primary murine hepatocytes; assay: Modulation of SOD2 activity in murine primary hepatocytes; type: cell-based, mouse; details: for SOD2 activity: primary murine hepatocytes, 24 hours
Experimental: (§3) Primary hepatocytes or AML-12 cells are lysed and total protein concentration is determined using the Bradford assay. SOD2 activity is determined at indicated times after treatment with a compound of Formula (I), Formula (Ia), Formula (Ib), Formula (II), or Formula (III), or a pharmaceutically acceptable salt thereof, using a SOD Assay Kit. Absorbance is determined and results are expressed in U/ml/mg of protein according to the standard curve and measured protein concentration.
Primary hepatocytes were prepared from 8-12-week-old C57BL/6J mice by collagenase perfusion method. Mouse livers were perfused with Hank's balanced salt solution (HBSS, KCl, 5.4 mM; KH2PO4, 0.45 mM; NaCl, 138 mM; NaHCO3, 4.2 mM; Na2HPO4, 0.34 mM; glucose, 5.5 mM; […]; EGTA, 50 mM; CaCl2, 50 mM; pH 7.4). Livers were then washed at a rate of 5 ml/min through the portal vein. After washing, livers were perfused with collagenase (0.025%) solution. Cell viability was assessed by the trypan blue method. Isolated primary hepatocytes were plated with DMEM medium (Gibco) including 10% FCS, 10 units per ml penicillin and HEPES for buffering. The cells were maintained in culture at 37° C. in a humidified atmosphere of 5% CO2/95% air. After 6-8 hrs of attachment, this medium was replaced with media containing different concentrations of an ACMSD inhibitor (i.e., Compound 1 or Compound 17) or with the corresponding concentration of DMSO (as a control). […]
(§4) Primary hepatocytes or AML-12 cells were then lysed in a 20 mM HEPES buffer (Gibco), pH 7.2, containing 1 mM EGTA (Sigma), 210 mM mannitol (Sigma), and 70 mM sucrose (AMRESCO). Total protein concentration was determined using the Bradford assay (BioRad). SOD-2 activity was determined at indicated times after ACMSD inhibitor treatment by the SOD Assay Kit (Cayman Chemical) according to the manufacturer's instructions. […] Absorbance was determined with a Victor X4 multi-label plate reader (Perkin-Elmer) at 450 nm. Results are expressed in U/ml/mg of protein according to the standard curve and measured protein concentration.

[7] = system: FoxO1 phosphorylation at Ser256; assay: FoxO1 phosphorylation levels in AML-12 cells (western blot); type: cell-based, mouse; details: 24 hours, increasing dose
Experimental: AML-12 cells are treated with different concentrations of a compound of Formula (I), Formula (Ia), Formula (Ib), Formula (II), or Formula (III), or a pharmaceutically acceptable salt thereof. Cells are then lysed, and analyzed by SDS-PAGE/western blot. Blocking and antibody incubations are then done and each protein present is detected with its specific antibody.
AML-12 cells were treated with different concentrations of Compound 1 or Compound 17 for 24 hours. Cells were then lysed in lysis buffer (50 mM Tris, 150 mM KCl, EDTA 1 mM, NP40 1%) containing protease and phosphatase inhibitors, and analyzed by SDS-PAGE/western blot. Blocking and antibody incubations were done in 5% milk. Each protein present was detected with its specific antibody. Tubulin antibody was obtained from Sigma Inc, FoxO1 and phopho-FoxO1 (Ser256) antibodies were obtained from Cell Signaling. Antibody detection reactions were developed by enhanced chemiluminescence (Advansta, Calif., USA) using x-ray films.

[8] = system: SOD2 activity in AML-12 cells; assay: Modulation of SOD2 activity in AML-12 cells; type: cell-based, mouse; details: 24 hours
Experimental: as §3, with “concentration. […]” for “concentration.”
as §4

[9] = system: primary mouse hepatocytes; assay: RT-qPCR analysis of SIRT1-regulated genes in primary mouse hepatocytes; type: cell-based; details: 24 hrs, 5 nM-500 nM range
Experimental: (§5) Cells (AML-12, Hepa-1.6, HEK-293, primary human and murine hepatocytes) are treated with different concentrations of a compound of Formula (I), Formula (Ia), Formula (Ib), Formula (II), or Formula (III), or a pharmaceutically acceptable salt thereof and the gene expression of ACMSD, Pgc1a, Sod1, and Sod2 (MnSOD) is determined using RT-qPCR. Total RNA is extracted from cells and the extracted RNA is treated with DNase and used for reverse transcription (RT).
(§6) Gene expression of ACMSD and genes known to be regulated by SIRT1, (an enzyme that is strictly NAD^+ dependent) such as Pgc1a, Sod1, Sod2 (MnSOD), were analysed in AML-12 cells, Hepa-1.6 cells and primary murine hepatocytes treated with Compound 1 or 17.
(§7) Cells (AML-12, Hepa-1.6, HEK-293, primary human and murine hepatocytes) were treated with different concentrations of Compound 1 or Compound 17. Total RNA was extracted from cells using TRIzol (Invitrogen) according to the manufacturer's instructions. The RNA was treated with DNase, and 2 μg of RNA was used for reverse transcription (RT). 50× diluted cDNA was used for RT-quantitative PCR (RT-qPCR) reactions. The RT-qPCR reactions were performed using the Light-Cycler system (Roche Applied Science) and a qPCR Supermix (QIAGEN) with the indicated primers. The average of at least three technical repeats was used for each biological data point.

[10] = system: Hepa-1.6 cells; assay: RT-qPCR analysis of SIRT1-regulated genes in Hepa-1.6 cells; type: cell-based; details: 24 hrs
Experimental: as §5, §6, §7

[11] = target: ACMSD-1 (Homo sapiens (Human), UniProt Q8TDX5); assay: ACMSD-1 modulation in HEK293T cells transiently expressing ACMSD; type: cell-based; details: about 50 nM to about 5 uM; stimulated 48 hrs to 72 hrs
Experimental: HEK293T cells are seeded and transfected to transiently express ACMSD. The cells are then stimulated with different concentrations of Compound 1, and then lysed to measure the ACMSD activity in a spectrophotometrical in vitro assay. The amount of the whole protein content in cell lysates is detected by Bradford analysis and used to get the specificity activity of the enzyme normalized in all samples.
HEK293T cells (ATCC) were seeded in six-well plates and transfected using Fugene HD to express transiently ACMSD. 24 hrs post transfection, the cells were stimulated for 48 hrs to 72 hrs with different concentrations of Compound 1 and then lysed to measure the ACMSD activity, by measuring the conversion of 30H-Anthranilic Acid into product (i.e. α-amino-beta-carboxymuconate-ε-semialdehyde, ACMS) in a spectrophotometrical in vitro assay. The amount of the whole protein content in cell lysates was detected by Bradford analysis. This value was used to get the specificity activity of the enzyme normalized in all samples (mU/ml or ΔE/Δt/mg of total protein).
Having determined the optimum stimulation time and transfection protocol cells were stimulated with different concentrations of Compound 1 (about 50 nM to about 5 uM).

[12] = system: AML-12 cells; assay: RT-qPCR analysis of SIRT1-regulated genes in AML-12 cells; type: cell-based, mouse; details: 24 hrs
Experimental: as §5, §6, §7

ACMSD-1, sequence (Q8TDX5 whole entry): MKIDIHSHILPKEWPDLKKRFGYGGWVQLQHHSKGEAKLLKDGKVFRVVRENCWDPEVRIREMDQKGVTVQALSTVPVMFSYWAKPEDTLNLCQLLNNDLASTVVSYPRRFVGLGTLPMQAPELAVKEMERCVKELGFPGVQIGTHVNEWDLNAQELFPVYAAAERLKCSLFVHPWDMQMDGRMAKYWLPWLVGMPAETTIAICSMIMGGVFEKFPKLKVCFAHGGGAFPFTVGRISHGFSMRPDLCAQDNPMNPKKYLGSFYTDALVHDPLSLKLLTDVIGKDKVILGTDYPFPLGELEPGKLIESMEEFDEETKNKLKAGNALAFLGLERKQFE

## N#Cc1c(-c2ccc(Cl)cc2)nc(SCc2ccc(C(=O)O)cc2)[nH]c1=O [Compound 8]
[1]
  Cytotoxicity AML-12: Not Toxic
[2]
  Cytotoxicity Hep-G2: Not Toxic

## N#Cc1c(-c2cccs2)nc(SCc2cccc(C(=O)O)c2)[nH]c1=O [Compound 4]
[1]
  Cytotoxicity AML-12: Not Toxic
[3]
  concentration at which ACMSD-1 enzyme is inhibited (NAD+ content, FIG. 1): ≤ 0.5 µM
[2]
  Cytotoxicity Hep-G2: Not Toxic

## N#Cc1c(-c2cccs2)nc(SCc2cccc(CC(=O)O)c2)[nH]c1=O [Compound 18]
[4]; 1 h, added one hour prior to cisplatin, 1 μM to 125 μM
  pEC50: 4.52
[4]; added in combination with cisplatin, 0.01 μM to 100 μM
  pEC50: 4.15
[4]; MDCK cells, cisplatin 50 μM for 16 hrs
  activity of caspase 3/7 induced by cisplatin: decreases, in significant manner

## N#Cc1c(-c2cccs2)nc(SCc2cccc(-c3nn[nH]n3)c2)[nH]c1=O [Compound 17]
[5]
  intra-cellular NAD+ levels: significant and dose-dependent increase; also recorded: increase in NAD^+ levels
[1]
  Cytotoxicity AML-12: Not Toxic
[6]; primary hepatocytes
  dose at which effect on SOD2 activity reached a maximum: about 50 nM
[6]
  SOD2 activity: induced in a dose-dependent manner
[7]
  FoxO1 phosphorylation at Ser256: decrease
[2]
  Cytotoxicity Hep-G2: Not Toxic
[8]
  SOD2 activity: induced in a dose-dependent manner
[9]
  Pgc1a mRNA expression level: dose-dependent increase
  Sod2 (MnSOD) mRNA expression level: dose-dependent increase

## O=C(O)c1cccc(CSc2nc(-c3ccccc3)c(Br)c(=O)[nH]2)c1 [Compound 11]
[1]
  Cytotoxicity AML-12: Not Toxic
[2]
  Cytotoxicity Hep-G2: Not Toxic

## N#Cc1c(-c2nccs2)nc(SCc2cccc(C(=O)O)c2)[nH]c1=O [Compound 5]
[1]
  Cytotoxicity AML-12: Not Toxic
[2]
  Cytotoxicity Hep-G2: Not Toxic

## N#Cc1c(-c2ccccc2)nc(SCc2cccc(C(=O)O)c2)[nH]c1=O [Compound 1]
[10]
  Sod2 mRNA levels: increased in a dose-dependent manner
[1]
  Cytotoxicity AML-12: Not Toxic
[6]
  SOD2 activity: induced in a dose-dependent manner
[11]
  ACMSD-1 activity in over-expression cell-based assay: inhibited ACMSD-1 activity, in a dose dependent manner
[7]
  FoxO1 phosphorylation at Ser256: decrease
[12]
  Sod2 mRNA levels: increased in a dose-dependent manner
[2]
  Cytotoxicity Hep-G2: Not Toxic
[8]
  SOD2 activity: induced in a dose-dependent manner

## N#Cc1c(-c2cccs2)nc(SCc2cccc(-c3noc(=O)[nH]3)c2)[nH]c1=O [Compound 19]
[1]
  Cytotoxicity AML-12: Not Toxic
[2]
  Cytotoxicity Hep-G2: Not Toxic
